Assay results reported in ChEMBL document CHEMBL1201862, “PubChem BioAssay data set” (2004).
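Test compounds were applied to cells in 96-well plates for 48 hours at 5 doses. GI50 is the concentration that inhibits growth by half.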 Active and inactive are the calls of the source. No stated cut-off is given here; in the data, active = GI50 up to about 1.1 µM and inactive = higher.

Assays:
Experiment in all cases: growth of human tumour cells (NCI), 48 h
CAKI-1 = system: CAKI-1
HCC 2998 = system: HCC 2998
HL-60 = system: HL-60
HT-29 = system: HT-29
IGROV-1 = system: IGROV-1
KM12 = system: KM12
M14 = system: M14
Malme-3M = system: Malme-3M
OVCAR-4 = system: OVCAR-4
RPMI-8226 = system: RPMI-8226
RXF 393 = system: RXF 393
U-251 = system: U-251
UACC-257 = system: UACC-257
UO-31 = system: UO-31
HOP-92 = system: HOP-92
OVCAR-3 = system: OVCAR-3
SK-OV-3 = system: SK-OV-3

Measured: GI50

CS(=O)(=O)NNS(=O)(=O)c1ccccc1
inactive: CAKI-1 > 100 µM | HCC 2998 > 100 µM | HL-60 > 100 µM | HT-29 > 100 µM | IGROV-1 > 100 µM | KM12 > 100 µM | M14 > 100 µM | Malme-3M > 100 µM | OVCAR-4 > 100 µM | RPMI-8226 > 100 µM | RXF 393 > 100 µM | U-251 > 100 µM | UACC-257 > 100 µM | UO-31 > 100 µM

COc1cccc(C2N3CCCCC3[C@@H]3c4[nH]c5ccccc5c4CCN23)c1OC (stereo partly drawn)
inactive: CAKI-1 16.2 µM | HL-60 15.1 µM | HOP-92 15.7 µM | HT-29 12.9 µM | IGROV-1 18.2 µM | M14 16.1 µM | OVCAR-3 13.1 µM | OVCAR-4 17.7 µM | RPMI-8226 18.7 µM | RXF 393 13.4 µM | SK-OV-3 17.5 µM | U-251 17.2 µM | UACC-257 15.9 µM | UO-31 14.9 µM

CC/C(=N/O)c1ccc2[nH]c3c(C)cc([N+](=O)[O-])c(C)c3c2c1
inactive: CAKI-1 > 100 µM | HCC 2998 83.8 µM | HL-60 12.7 µM | HT-29 37.4 µM | KM12 37.4 µM | M14 23.6 µM | Malme-3M 51.3 µM | OVCAR-3 36.1 µM | OVCAR-4 87.9 µM | RPMI-8226 52.7 µM | UACC-257 95.1 µM | UO-31 57.8 µM

CN[C@@H](C)[C@@H](N)c1ccccc1
inactive: CAKI-1 > 100 µM | HCC 2998 > 100 µM | HOP-92 > 100 µM | HT-29 > 100 µM | IGROV-1 > 100 µM | M14 > 100 µM | Malme-3M > 100 µM | OVCAR-3 > 100 µM | RPMI-8226 > 100 µM | RXF 393 > 100 µM | SK-OV-3 > 100 µM | U-251 > 100 µM | UACC-257 > 100 µM | UO-31 > 100 µM

Cc1cc2c(C=O)n[nH]c2c(C#N)c1C
inactive: HCC 2998 > 100 µM | HOP-92 31.3 µM | HT-29 53.6 µM | IGROV-1 67 µM | KM12 34.7 µM | M14 35.9 µM | Malme-3M > 100 µM | OVCAR-3 48 µM | OVCAR-4 29.2 µM | RPMI-8226 > 100 µM | SK-OV-3 > 100 µM | U-251 60.3 µM | UACC-257 43.5 µM | UO-31 34.5 µM

Nc1ccc2nc(NCc3ccc(F)cc3)cnc2c1
inactive: HCC 2998 > 100 µM | HL-60 54.1 µM | HT-29 > 100 µM | IGROV-1 > 100 µM | KM12 > 100 µM | M14 > 100 µM | Malme-3M > 100 µM | OVCAR-3 > 100 µM | OVCAR-4 > 100 µM | RPMI-8226 > 100 µM | RXF 393 59.6 µM | U-251 > 100 µM | UO-31 21.3 µM

CCOC(=O)NC1C2CC(=O)OC(O2)C1OC(C)=O (stereo not drawn)
inactive: CAKI-1 > 100 µM | HCC 2998 > 100 µM | HOP-92 > 100 µM | HT-29 > 100 µM | IGROV-1 59.7 µM | KM12 > 100 µM | M14 > 100 µM | Malme-3M > 100 µM | OVCAR-3 > 100 µM | OVCAR-4 > 100 µM | RPMI-8226 > 100 µM | RXF 393 > 100 µM | SK-OV-3 > 100 µM | U-251 > 100 µM | UACC-257 > 100 µM | UO-31 60.7 µM

CCOC(=O)COc1cccc2c1C(=O)CCO2
inactive: CAKI-1 > 100 µM | HCC 2998 > 100 µM | HL-60 > 100 µM | HT-29 > 100 µM | IGROV-1 > 100 µM | KM12 > 100 µM | M14 > 100 µM | Malme-3M > 100 µM | OVCAR-3 > 100 µM | OVCAR-4 > 100 µM | RPMI-8226 > 100 µM | SK-OV-3 > 100 µM | U-251 > 100 µM | UACC-257 > 100 µM | UO-31 > 100 µM

CCOC(=O)/C(=C/c1ccc(C(=O)OC)cc1)N(CC)CC
inactive: CAKI-1 41.6 µM | HCC 2998 99.5 µM | HL-60 27.4 µM | HOP-92 49.9 µM | IGROV-1 > 100 µM | KM12 41.3 µM | M14 40.2 µM | Malme-3M 90.4 µM | OVCAR-3 22.4 µM | OVCAR-4 48.2 µM | RPMI-8226 42.5 µM | SK-OV-3 50.5 µM | U-251 42 µM | UACC-257 57.3 µM | UO-31 37.2 µM

Nc1ncnc2c1ncn2C1OC(CSC(F)(F)F)C(O)C1O (stereo not drawn)
inactive: CAKI-1 > 100 µM | HCC 2998 > 100 µM | HL-60 > 100 µM | HOP-92 > 100 µM | HT-29 > 100 µM | IGROV-1 > 100 µM | KM12 > 100 µM | M14 > 100 µM | Malme-3M > 100 µM | OVCAR-3 > 100 µM | OVCAR-4 > 100 µM | RPMI-8226 > 100 µM | SK-OV-3 > 100 µM | U-251 > 100 µM | UACC-257 > 100 µM | UO-31 > 100 µM
